# Laboratory results taken from PubChem BioAssay (NCI).
#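 Values below derive from 48-hour exposures of cells grown in 96-well plates, with endpoints linearly interpolated between the two concentrations bracketing the appropriate inhibition level. Here, GI50 denotes the concentration required for 50% inhibition of growth. The concentration for full growth arrest is given as TGI.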
# Legend:
# Experiment in all cases: growth of human tumour cells (NCI), 48 h
# A549 NSCLC = test system: A549 NSCLC
# HT29 colon = test system: HT29 colon
# LOX IMVI melanoma = test system: LOX IMVI melanoma
# MOLT-4 leukemia = test system: MOLT-4 leukemia
# NCI/ADR-RES ovarian = test system: NCI/ADR-RES ovarian
# OVCAR-8 ovarian = test system: OVCAR-8 ovarian
# RXF 393 renal = test system: RXF 393 renal
# UACC-62 melanoma = test system: UACC-62 melanoma
# UO-31 renal = test system: UO-31 renal
# HCT-116 colon = test system: HCT-116 colon
SMILES,GI50 (A549 NSCLC),TGI (A549 NSCLC),GI50 (HT29 colon),TGI (HT29 colon),GI50 (LOX IMVI melanoma),TGI (LOX IMVI melanoma),GI50 (MOLT-4 leukemia),TGI (MOLT-4 leukemia),GI50 (NCI/ADR-RES ovarian),TGI (NCI/ADR-RES ovarian),GI50 (OVCAR-8 ovarian),TGI (OVCAR-8 ovarian),GI50 (RXF 393 renal),TGI (RXF 393 renal),GI50 (UACC-62 melanoma),TGI (UACC-62 melanoma),GI50 (UO-31 renal),TGI (UO-31 renal),TGI (HCT-116 colon),GI50 (HCT-116 colon)
Cc1cc(Cl)ccc1Nc1nc(C(F)(F)F)ccc1C(=O)Nc1cccc(C(F)(F)F)c1,3.4 µM,18 µM,3.07 µM,10.8 µM,2.79 µM,8.55 µM,3.04 µM,13.3 µM,3.38 µM,14.7 µM,4.32 µM,22.7 µM,3.58 µM,27.5 µM,4 µM,14.4 µM,3.71 µM,16 µM,,
CC(=O)O[C@H]1CC[C@@]2(C)C(=C/C(=N\[N+](=O)[O-])[C@H]3C4CCC([C@H](C)CCCC(C)C)[C@@]4(C)CCC32)C1 (stereo not given in full),,> 100 µM,,> 100 µM,,> 100 µM,,> 100 µM,,,,> 100 µM,,> 100 µM,,> 100 µM,,> 100 µM,> 100 µM,
COc1ccc(/C(C#N)=C(/N)SCc2ccccc2Cl)cc1,,> 100 µM,,33.3 µM,,29 µM,,85.2 µM,,,,> 10 µM,,30.9 µM,,25.4 µM,,> 10 µM,32.8 µM,
COC(=O)c1nc(N)nc(C(=O)OC)c1C(=O)c1ccccc1,,> 100 µM,,> 100 µM,,> 100 µM,,> 100 µM,,,,> 100 µM,,> 100 µM,,> 100 µM,,> 100 µM,> 100 µM,
O=c1[nH]c2c(c3ccccc13)CCc1ccccc1-2,,> 100 µM,,> 100 µM,,,,> 100 µM,,,,> 100 µM,,> 100 µM,,,,> 100 µM,> 100 µM,
NC(=O)N/N=C(\CCC(=O)N(Cc1ccccc1)Cc1ccccc1)CC(=O)c1ccc(F)cc1,,> 100 µM,,> 100 µM,,> 100 µM,,> 100 µM,,,,> 100 µM,,> 100 µM,,> 100 µM,,> 100 µM,> 100 µM,
[O-][n+]1c2cc(CN3CCOCC3)c(CN3CCOCC3)cc2[n+]([O-])c2c(O)cccc21,,> 25.3 µM,,9.18 µM,,16.3 µM,,3.05 µM,,,,7.12 µM,,5.11 µM,,12.9 µM,,10.4 µM,6.05 µM,
Cc1cccc(N=C2NC(=O)C(CC(=O)Nc3ccccc3Cl)S2)c1 (stereo not given),,> 100 µM,,> 100 µM,,> 100 µM,,> 100 µM,,,,> 100 µM,,> 100 µM,,> 100 µM,,> 100 µM,> 100 µM,
COc1cc(/C=C\c2ccc(Cl)cc2)cc(OC)c1OC,,> 100 µM,,10.2 µM,,> 100 µM,,6.87 µM,,,,> 100 µM,,> 100 µM,,> 100 µM,,> 43.6 µM,> 100 µM,
CN(C)C(=S)SCC(N)=O,,> 100 µM,,> 100 µM,,> 100 µM,,> 100 µM,,> 100 µM,,> 100 µM,,> 100 µM,,> 100 µM,,,> 100 µM,
COC(=O)C1C(/C=C/c2ccoc2)ON2CCC[C@@H]12 (stereo not given in full),,> 100 µM,,> 100 µM,,> 100 µM,,,,,,> 100 µM,,> 100 µM,,,,> 100 µM,,
O=C(NC1C=Nc2ccccc2NC1=O)c1ccccc1Cl (stereo not given),,> 100 µM,,> 100 µM,,> 100 µM,,54.4 µM,,,,> 100 µM,,62.9 µM,,> 100 µM,,> 100 µM,> 100 µM,
COc1ccc(/C=N\O[Si](C)(C)C(C)(C)C)cc1O[Si](C)(C)C(C)(C)C,,34.9 µM,,36.2 µM,,36.5 µM,,36.5 µM,,,,45.2 µM,,28.4 µM,,40.2 µM,,27.9 µM,29.1 µM,
OC1c2ccccc2C2C(O)c3ccccc3C12 (stereo not given),,> 100 µM,,> 100 µM,,> 100 µM,,> 100 µM,,,,> 100 µM,,> 100 µM,,> 100 µM,,> 100 µM,,
O=C1NN=C(c2ccc([N+](=O)[O-])cc2)C1n1nc(-c2ccccc2)c2ccccc2c1=O (stereo not given),,> 100 µM,,> 100 µM,,> 100 µM,,> 100 µM,,,,> 100 µM,,> 100 µM,,> 100 µM,,> 100 µM,> 100 µM,
NNC(=S)N/N=C(/C(=O)Nc1ccc([N+](=O)[O-])cc1)c1nc2ccc([N+](=O)[O-])cc2[nH]c1=O,,> 100 µM,,> 100 µM,,> 100 µM,,> 100 µM,,,,> 100 µM,,,,> 100 µM,,> 100 µM,> 100 µM,
O=C1NN=CN2C(=O)CCC12 (stereo not given),,> 100 µM,,,,> 100 µM,,> 100 µM,,,,> 100 µM,,> 100 µM,,> 100 µM,,> 100 µM,> 100 µM,
CN(C)CC1=Nc2cccc3cccc(c23)N1,,> 100 µM,,53.7 µM,,37.3 µM,,,,> 100 µM,,> 100 µM,,31.9 µM,,29.6 µM,,23 µM,30.8 µM,
O=C1NC(SCc2ccc(F)cc2)=N/C1=C/c1cccc(OCc2ccc(Cl)cc2)c1,6.61 µM,> 100 µM,> 100 µM,> 100 µM,6 µM,> 100 µM,31.6 µM,> 100 µM,22.2 µM,> 100 µM,18.8 µM,> 100 µM,9.22 µM,48.9 µM,> 100 µM,> 100 µM,,,14.9 µM,3.27 µM
c1ccc(/C(=N\Nc2ccc3ccccc3n2)c2ccccn2)cc1,1.11 µM,> 36.2 µM,0.608 µM,26.1 µM,0.457 µM,5.61 µM,0.252 µM,0.69 µM,0.387 µM,14.2 µM,0.456 µM,17.4 µM,,,0.549 µM,7.41 µM,0.361 µM,4.89 µM,5.62 µM,0.436 µM
O=C(CC(=O)C1CCOC1=O)C(=O)Nc1ccc(Cl)cc1 (stereo not given),,> 100 µM,,> 100 µM,,> 100 µM,,,,,,> 100 µM,,> 100 µM,,> 100 µM,,> 100 µM,> 100 µM,
C=C(C)C(=O)O[C@H]1CC2=CC(CC(C)=C[C@H]3OC(=O)C(=C)C13)OC2=O (stereo not given in full),,> 100 µM,,43.2 µM,,53.7 µM,,40.7 µM,,> 100 µM,,> 100 µM,,,,38.8 µM,,,24.2 µM,
